For one series, the system named is P. aeruginosa. The experiment in a line: Time-kill kinetics assay. In kind it is cell-based, Pseudomonas aeruginosa. The conditions noted are these: both Pseudomonas strains; 1× and 2×MIC; USP phosphate buffer pH 7.2; 35° C.; FIG. 12. How it is done: The kinetics of bactericidal action was performed by the assay reported before. Briefly, few colonies of overnight grown P. aeruginosa strains were collected from tryptic soy agar plate and suspended in US pharmacopeia phosphate buffer (pH 7.2). The suspension was adjusted to an initial inoculum of 10^6 CFU/mL and incubated with various concentrations of B2088 and B2088—99 at 35° C. 0.1 ml aliquots were withdrawn at various time intervals, diluted 10^2-10^4 fold using the same buffer, plated on tryptic soy agar plates and incubated at 35° C. The colonies were counted after 24 h incubation and expressed as CFU/ml. Buffer without peptides served as a positive control and % bacterial viability is estimated using the following equation: Bacterial viability=1−(CFU/mL)peptide/(CFU/mL)control*100

The test system of a further series is P. aeruginosa ATCC 9027. The experiment in a line: Outer membrane (OM) permeability assay (NPN uptake). In kind it is cell-based, Pseudomonas aeruginosa. The conditions noted are these: 5 mM HEPES buffer pH 7.2; 10 μM NPN; FIG. 13. On the procedure:
The membrane impermeable probe N-phenyl-1-naphthyl amine (NPN) was used to probe the OM permeability of peptides. An overnight culture of P. aeruginosa ATCC 9027 was harvested by centrifugation (3000 rpm, 4° C.). The pellet was washed 2 times and resuspended in 5 mM HEPES buffer (pH 7.2) to OD600 of 0.4. The cells were placed in a 10 mm stirred cuvette and NPN was added to a final concentration of 10 μM. Appropriate concentrations of B2088 was added and the increase in fluorescence intensity was monitored on a Quanta Master fluorescence spectrophotometer (Photon Technology International, New Jersey, USA). The excitation and emission wavelengths were set at 350 and 410 nm with slid widths at 2 and 5 nm, respectively. The % NPN uptake was calculated relative to the increase in NPN fluorescence intensity after the addition of 50 μM polymyxin B.
The peptide concentration required to cause 50% increase in the NPN fluorescence intensity (PC50) was measured.

For another series, the system named is PA 9027. The series can be described thus: Bacterial viability assay (ED50). In kind it is cell-based, Pseudomonas aeruginosa. How it is done: (§1) Cell viability was conducted for two Gram-negative bacteria (Pa 9027 and Pa 27853). The cultures were grown overnight on trypticase soy (TS) agar and a few isolated colonies were inoculated to achieve a turbidity equivalent to 0.5 McFarland standard. The cell concentration was adjusted to 10^6 CFU/ml with 10 mM phosphate buffer and separated into different tubes to get final concentration of 10^5 CFU/ml. The peptides were added to the individual tubes to obtain concentrations of ⅛ MIC, ¼ MIC, ½ MIC, 1 MIC, 2 MIC and 4 MIC. The tubes were incubated at 37° C. for 22 h. Serial dilution was performed and 100 μL of the suspension was aliquot onto Mueller Hinton Agar (MHA) plate. The plates were incubated for 24 h at 37° C. for colony counting. Positive control was performed at Oh and 22h.

The subject of another series is PA 28753. The series can be described thus: Bacterial viability assay (ED50). In kind it is cell-based, Pseudomonas aeruginosa. The conditions noted are these: 10 mM phosphate buffer; 37° C.; 22 h; read-out: ED50 (Effective dose to kill 50% of bacterial cells). On the procedure: as §1
For another series, the system named is LPS. The experiment in a line: Competitive inhibition assay: effect of exogenous LPS on inhibitory activity. To be noted: peptide at 1×MIC in MHB; compared to B2088; FIG. 10(C). In kind it is cell-based. On the procedure: Effect of LPS and Mg^2+ on MIC: To examine the interaction of peptide and LPS, the concentration of the latter was added exogenously from (0.001-100 mg/ml) in MHB at a peptide concentration of 1×MIC. The % inhibition was estimated and the amount of LPS required for 50% of antibacterial activity (IC50) was determined.

A further series has as its system Kp ATCC 10031. In kind it is cell-based, Klebsiella pneumoniae. To be noted: ATCC 10031, 24 h. How it is done: The minimum inhibitory concentration (MIC) was determined using a broth microdilution method. Different strains of bacterial cells were grown in Mueller Hinton Broth (MHB) overnight. 100 μl of adjusted inoculum in MHB was added to 100 μl of each dilution of peptide or antibiotics dissolved in the broth, so as to yield a final cell density of 10^5 to 10^6 cfu/ml in each well of a microtitre plate. Additional microtitre plates may be used as necessary, if more wells are required for the assay or duplicate plates are required. The microtitre plates were incubated at 35° C. for 24 h and the absorbance at 600 nm (OD600) was monitored every 30 minutes. […] A positive control well contained the broth and organisms (no peptides/antibiotics), and a negative control well contains only the broth. The MIC of peptides for each clinical isolate or reference organism was recorded as the lowest concentration of peptide/antibiotic that inhibited visible growth of the test organism. […]

In series [1] the test system is human conjunctival epithelial cells. In kind it is cell-based. On the procedure: The results are from four independent experiments and data points show the mean and standard deviations. The X axis indicates the peptide concentration in μg/ml and the Y axis indicates the % cell viability. The cytotoxicity of V2 dimer were tested against human conjunctival cells according to the method described in WO 2007/126392 and compared with native hBD3. […] Wildtype hBD3 was cytotoxic at concentrations of about 15 μg/ml, however, the V2 dimer was not cytotoxic at concentrations of 100 μg/ml.

Series [2] relates to Clinical Pseudomonas aeruginosa PAE 240 DU14476/07 Source: Urine. In kind it is cell-based. The conditions noted are these: Clinical PAE 240 DU14476/07 Source: Urine. How it is done: (§2) MICs was determined by broth macrodilution method modified from that described by the National Committee for Clinical Laboratory Standards (NCCL). The Mueller Hinton Broth (MHB) at ⅙ strength and without addition of Ca^2+ and Mg^2+ was used for dilution. Serial twofold dilutions of V2 dimer solution was prepared in MHB (⅙ strength) in test tubes. 1 ml of inoculum of test organisms in MHB (⅙ strength) was added to 1 ml of each dilution of V2 dimer to yield as final concentration of 10^4 to 10^5 colony forming units/ml in each test tube. The tubes were incubated at 35° C. for 16 to 20 hours. A positive control containing only the broth and organism, and a negative control tube containing only the broth were also incubated in parallel to the test samples. The above was repeated for each different test organism in separate experiments. The MIC of V2 dimer peptide for each clinical isolate or reference organism was read as the lowest concentration of peptide that inhibited visible growth of the test organism.
(§3) The MIC was also determined for other peptides and compared to gentamicin.

For series [3], the system named is Clinical Escherichia coli DB16027 Source: Blood. In kind it is cell-based. To be noted: Clinical DB16027 Source: Blood. On the procedure: as §2, §3
For series [4], the system named is Clinical Escherichia coli DU46381R Source: Urine. In kind it is cell-based. How it is done: as §2, §3
In series [5] the test system is Clinical Pseudomonas aeruginosa 07DM 023257 Source: Eye. In kind it is cell-based. The conditions noted are these: Clinical 07DM 023257 Source: Eye. On the procedure: as §2, §3
Series [6] deals with Pseudomonas aeruginosa ATCC 27853. In kind it is cell-based. How it is done:
as §2, §3

In series [7] the test system is Clinical Pseudomonas aeruginosa PAE 239 DM5790/07 Source: Wound. In kind it is cell-based. The conditions noted are these: Clinical PAE 239 DM5790/07 Source: Wound. How it is done: as §2, §3
Series [8] deals with Candida albicans ATCC10231. In kind it is cell-based. How it is done:
as §2, §3

Series [9] concerns Clinical Staphylococcus aureus DM4001 Source: Eye. In kind it is cell-based. How it is done: as §2, §3
Series [10] concerns Escherichia coli ATCC25922. In kind it is cell-based. How it is done: as §2, §3
For series [11], the system named is Methicillin-resistant staphylococcus aureus (MRSA) DM09808R Source: Eye. In kind it is cell-based. To be noted: Methicillin-resistant DM09808R Source: Eye. On the procedure: as §2, §3
In series [12] the test system is Bacillus cereus ATCC 11778. In kind it is cell-based. On the procedure:
as §2, §3

Series [13] has as its system Fusarium solani ATCC 36031. In kind it is cell-based. How it is done: as §2, §3
The subject of series [14] is Clinical Pseudomonas aeruginosa DM 023155 Source: Eye. In kind it is cell-based. The conditions noted are these: Clinical DM 023155 Source: Eye. On the procedure:
as §2, §3

In series [15] the test system is Clinical Pseudomonas aeruginosa DM 023104 Source: Eye. In kind it is cell-based. The conditions noted are these: Clinical DM 023104 Source: Eye. How it is done:
as §2, §3

The subject of series [16] is Clinical Pseudomonas aeruginosa PAE 249 DM15013 Source: Wound. In kind it is cell-based. The conditions noted are these: Clinical PAE 249 DM15013 Source: Wound. How it is done: as §2, §3
In series [17] the test system is Clinical Pseudomonas aeruginosa 07DM023376 Source: Eye. In kind it is cell-based. To be noted: Clinical 07DM023376 Source: Eye. How it is done: as §2, §3
Series [18] relates to Clinical Pseudomonas aeruginosa PAE 230 DR4877/07 Source: Sputum. In kind it is cell-based. The conditions noted are these: Clinical PAE 230 DR4877/07 Source: Sputum. How it is done: as §2, §3
Series [19] has as its system Clinical Cadida albicans DF2672R Source: Urine. In kind it is cell-based, Candida albicans. How it is done: as §2, §3

As usually defined, the MIC is the lowest concentration that inhibits growth of the organism. Read a low MIC as a more susceptible organism.

≈ marks a conversion by molar mass, not a printed value. Bridge positions count the residues as written; N and C are the ends. Peptide text beside a SMILES is read from it. I, II: the chains in the order shown.

On to `N=C(N)NCCC[C@H](NC(=O)CNC(=O)CNC(=O)[C@H](CCCCN)NC(=O)[C@H](CCCNC(=N)N)NC(=O)CNC(=O)[C@@H](N)CCCNC(=N)N)C(=O)N[C@@H](CCCNC(=N)N)C(=O)NCCCC[C@H](NC(=O)[C@H](CCCNC(=N)N)NC(=O)[C@H](CCCNC(=N)N)NC(=O)CNC(=O)CNC(=O)[C@H](CCCCN)NC(=O)[C@H](CCCNC(=N)N)NC(=O)CNC(=O)[C@@H](N)CCCNC(=N)N)C(=O)N[C@@H](CCCCN)C(=O)O` [B2088_99, (RGRKGGRR)2KK] (I: H-RGRKGGRRKK-OH / II: H-RGRKGGRR; amide I:9-II:C; N-terminus assumed), for which the kill kinetics result in the series on P. aeruginosa was “faster kill kinetics”. For the same molecule, the “PC50 (peptide concentration to cause 50% increase in NPN fluorescence intensity)” value in the series on P. aeruginosa ATCC 9027 is given as “higher than B2088”. Besides, the EC50 worked out at 330 ± 50 nM in the series on PA 9027 (10 mM phosphate buffer, 37° C., 22 h, read-out: ED50 (Effective dose to kill 50% of bacterial cells)) and 480 ± 30 nM in the series with PA 28753. Besides, the “ED50 compared with B2088” value with PA 9027 (Pa 9027 and Pa 27853, Table 22 and FIG. 11) is recorded as “two times lower”. The “concentration of LPS to suppress the inhibitory activity” value in the series on LPS is given as “higher concentration of LPS”. Further, the “Minimum inhibitory concentration (MIC)” value in the series on Kp ATCC 10031 amounted to 1.5 µM (≈ 3.18 µg/mL).
`CC(C)[C@H](NC(=O)[C@H](CCCCN)NC(=O)[C@H](CCCNC(=N)N)NC(=O)CNC(=O)[C@@H](N)CCCNC(=N)N)C(=O)N[C@H](C(=O)N[C@@H](CCCNC(=N)N)C(=O)N[C@@H](CCCNC(=N)N)C(=O)NCCCC[C@H](NC(=O)[C@H](CCCNC(=N)N)NC(=O)[C@H](CCCNC(=N)N)NC(=O)[C@@H](NC(=O)[C@@H](NC(=O)[C@H](CCCCN)NC(=O)[C@H](CCCNC(=N)N)NC(=O)CNC(=O)[C@@H](N)CCCNC(=N)N)C(C)C)C(C)C)C(=O)N[C@@H](CCCCN)C(=O)O)C(C)C` [V2 dimer, (SEQ ID NO: 44)2KK] (I: H-RGRKVVRRKK-OH / II: H-RGRKVVRR; amide I:9-II:C): the “cytotoxicity in comparison with native hBD3” value in series [1] is given as “does not show cytotoxicity”. Besides, the minimum inhibitory concentration (MIC) in series [2] is 6.25 µg/mL (≈ 2.73 µM); in series [3], 6.25 µg/mL (≈ 2.73 µM); in [4], 6.25 µg/mL (≈ 2.73 µM); in series [5] it was 12.5 µg/mL (≈ 5.46 µM); in [6], 12.5 µg/mL (≈ 5.46 µM); in series [7], 12.5 µg/mL (≈ 5.46 µM). The MIC in [8] was found to be 12.5 µg/mL (≈ 5.46 µM); in series [9] it was 12.5 µg/mL (≈ 5.46 µM); in series [10] it was 12.5 µg/mL (≈ 5.46 µM); in [11] it was 12.5 µg/mL (≈ 5.46 µM); in series [12] it was 12.5 µg/mL (≈ 5.46 µM); in series [13] it was 25 µg/mL (≈ 10.9 µM). Further, the MIC in series [14] is 12.5 µg/mL (≈ 5.46 µM); in series [15], 12.5 µg/mL (≈ 5.46 µM); in series [16], 6.25 µg/mL (≈ 2.73 µM); in series [17], 12.5 µg/mL (≈ 5.46 µM); in series [18] it was 12.5 µg/mL (≈ 5.46 µM); in series [19], 12.5 µg/mL (≈ 5.46 µM). Also, the “Minimum inhibitory concentration (MIC)” value in the series on Kp ATCC 10031 amounted to 1.4 µM (≈ 3.21 µg/mL).
